# Patent publication US8758777B2, “Pharmaceutical compositions comprising water-soluble sulfonate-protected nanoparticles and uses thereof” (Bar-Ilan University, priority 2010, dated 2014)
# Test system: wild-type HSV-1 McIntyre strain
# Experiment: Antiviral assay (plaque reduction) in Vero cells
# Assay type: cell-based, herpes simplex virus-1 (HSV-1)
# Settings: 50-1000 μg/ml; 80 PFU; 48 hours
# Description: Antiviral assay: The virus used was the wild-type HSV-1 McIntyre strain. For the inhibition experiments, 7×10^4 Vero cells/well were grown in 24 well plates.
# Cell monolayers were infected with HSV-1 in the presence or absence of the nanoparticles, as described in the antiviral assay in the Experimental, and observed for the presence of plaques after 48 hours. Plaque formation was obtained by the addition of γ-globulins, which prevents virus dissemination while retaining cell-to-cell spread. FIG. 3A (panels a-h) show images of the cell cultures after 48 hours.
smiles,measurement,value
"O=S(=O)([O-])CCS.[Na+] [soluble MES, sodium 2-mercaptoethanesulfonate]",inhibition of virus infection (number of plaques and average size),completely ineffective
